We go through 26 compounds from ChEMBL document CHEMBL1153902, “Investigations of SCIO-469-like compounds for the inhibition of p38 MAP kinase” (Bioorg Med Chem Lett, 2009).

The nature of one assay: Selectivity for p38alpha over p38beta.
As for `CN(C)C(=O)C(=O)c1cn(C)c2cc(Cl)c(C(=O)N3CCC(Cc4ccc(F)cc4)CC3)cc12`, the fold change (FC) is 10.

A short description of another assay: Inhibition of p38 MAPK assessed as substrate phosphorylation by ELISA. (In an ELISA, binding on a coated surface is turned into a signal by an enzyme label.)
Consider `Cn1c(C(=O)N2CCN(Cc3ccc(F)cc3)CC2)cc2ccccc21`, for which the concentration for half-maximal inhibition (IC50) (in general, the concentration that gives 50% inhibition) was 1.36 µM. On the same count and under the same terms, next, `O=C(c1[nH]c2ccccc2c1I)N1CCN(Cc2ccc(F)cc2)CC1`: 7.47 µM; `O=C(c1cc2ccccc2o1)N1CCN(Cc2ccc(F)cc2)CC1`: 8.42 µM; `O=C(c1cc2ccccc2o1)N1CCC(Cc2ccccc2)CC1`: 1.75 µM.

`CC(=O)c1ccc2[nH]c(C(=O)N3CCN(Cc4ccc(F)cc4)CC3)c(Cl)c2c1`: the IC50 was 6.51 µM. The same measure, in the same setting: with `O=C(c1cc2ccccc2[nH]1)N1CCC(Cc2ccccc2)CC1` the figure was 1.09 µM; with `O=C(c1cc2ccccc2[nH]1)N1CCN(Cc2ccc(F)cc2)CC1`, 3.2 µM. Still for that read-out and setting: with `O=C(c1[nH]c2ccccc2c1Cl)N1CCN(Cc2ccc(F)cc2)CC1` the figure was 7.57 µM.

Regarding `O=C(c1[nH]c2ccccc2c1Br)N1CCN(Cc2ccc(F)cc2)CC1`, the half-inhibitory concentration (IC50) came out at 6.46 µM. On the same count and under the same terms, with `CC(=O)c1cccc2cc(C(=O)N3CCN(Cc4ccc(F)cc4)CC3)[nH]c12` the figure was 3.61 µM; with `CC(=O)c1cccc2c(Cl)c(C(=O)N3CCN(Cc4ccc(F)cc4)CC3)[nH]c12`, 2.46 µM; with `Cn1c(C(=O)N2CCN(Cc3ccc(F)cc3)CC2)c(Br)c2ccccc21`, 2.24 µM.

Regarding `O=C(c1cc2ccccc2[nH]1)N1CCN(Cc2ccccc2)CC1`, the IC50 turned out to be 5.77 µM.

The nature of a further assay: Inhibition of p38 MAPK assessed as substrate phosphorylation at 10 uM by ELISA.
Regarding `O=C(c1cn2ccccc2n1)N1CCN(Cc2ccc(F)cc2)CC1`, the inhibition – broadly, the percentage by which the read-out fell short of the control – is 33%. Turning to `Cn1c(C(=O)N2CCN(Cc3ccc(F)cc3)CC2)nc2ccccc21`, the inhibition is 32%. In the case of `O=C(c1ccco1)N1CCN(Cc2ccccc2)CC1`, the inhibition was 20%. For `Fc1ccc(CN2CCN(Cc3cc4ccccc4[nH]3)CC2)cc1`, the inhibition is 25%. On the same count and under the same terms, next, `CN(C)C(=O)C(=O)c1cn(C)c2ccc(NC(=O)N3CCN(Cc4ccc(F)cc4)CC3)cc12`: 12%; `CC(=O)c1c(C(=O)N2CCN(Cc3ccc(F)cc3)CC2)[nH]c2ccccc12`: 24%.

In the case of `O=C(c1cc2c(Br)cccc2[nH]1)N1CCN(Cc2ccc(F)cc2)CC1`, the inhibition amounted to 34%.

On to `CC(=O)c1ccc2[nH]c(C(=O)N3CCN(Cc4ccc(F)cc4)CC3)cc2c1`, for which the inhibition is 45%.

As to `O=C(c1nc2ccccc2[nH]1)N1CCN(Cc2ccc(F)cc2)CC1`, the inhibition worked out at 24%. Same read-out and setting: with `CC(C)(C)OC(=O)n1ccc2cc(CNC(=O)N3CCN(Cc4ccc(F)cc4)CC3)ccc21` the figure was 8%; with `O=C(c1ccco1)N1CCN(Cc2ccc(F)cc2)CC1`, 35%; with `Cn1ccc2cc(NC(=O)N3CCN(Cc4ccc(F)cc4)CC3)ccc21`, 28%.
